Earlier results as cited in US20060034895A1, “Supplement food for low blood glucose recovery” (priority 2003, published 2006).

- solubility in alcohol (alcohol): cannot melt into an alcohol easily
- solubility in ether (ether): insoluble to ether
- solubility in water (water): easy to melt into water
Structure (SMILES): O=C[C@H](O)[C@@H](O)[C@H](O)[C@H](O)CO [D-glucose]
